Experimental data as given in patent US20260158011A1 (Achieve Life Sciences, Inc., priority 2023, published 2026).
Marks after values point to notes of the source that are not given here.

Test system: adult e-cigarette users
Text: A second measurement consisted of biochemically verified continuous vaping abstinence at any time during treatment, with vaping abstinence at Week 3-6 or Week 6-9 for of cytisinicline treatment vs placebo. 7-day point prevalence rates were compared for vaping abstinence (Week 2 to 12) (FIG. 62). An additional measurement included reduction in daily vaping as measured by cotinine, where cytisinicline treatment vs placebo for a reduction in nicotine vaping using weekly quantitative cotinine levels from Week 2 to Week 12. Safety was assessed by adverse effects and serious adverse effects, considering number, severity, and attribution to study drug.

[1] = by Preferred Term table, 12 Weeks, N = 106, Safety Set
[2] = overall summary, 12 Weeks, N = 106, Safety Set
[3] = possibly, probably or definitely related, 12 Weeks, N = 106, Safety Set

## O=c1cccc2n1C[C@@H]1CNC[C@H]2C1 [cytisine, (−)-Cytisine]
12 Weeks, N = 106, Safety Set
  At Least One AE, Events: 123 Events
  At Least One AE, subjects: 56 (52.8) n (%)
  At Least One Related Serious TEAE: 0 n (%)/Events
  At Least One Serious TEAE: 0 n (%)/Events
  At Least One TEAE Leading to Dose Reduction, Dose Interrupted or Study Drug Discontinuation: 7 (6.6) n (%)
  Subjects with Dose Reduction: 3 (2.8) n (%)
  TEAE Abdominal discomfort, subjects %: (0.9) %
  TEAE Abdominal discomfort, subjects n: 1 n
  TEAE Abnormal dreams, subjects %: (12.3) %
  TEAE Abnormal dreams, subjects n: 13 n
  TEAE Action Taken With Study Drug: Dose Interrupted, Events: 1 Events
  TEAE Action Taken With Study Drug: Dose Interrupted, subjects: 1 (0.9) n (%)
  TEAE Action Taken With Study Drug: Dose Not Changed, Events: 101 Events
  TEAE Action Taken With Study Drug: Dose Not Changed, subjects: 51 (48.1) n (%)
  TEAE Action Taken With Study Drug: Dose Reduced, Events: 3 Events
  TEAE Action Taken With Study Drug: Dose Reduced, subjects: 3 (2.8) n (%)
  TEAE Action Taken With Study Drug: Drug Withdrawn, Events: 7 Events
  TEAE Action Taken With Study Drug: Drug Withdrawn, subjects: 4 (3.8) n (%)
  TEAE Action Taken With Study Drug: Not Applicable, Events: 7 Events
  TEAE Action Taken With Study Drug: Not Applicable, subjects: 5 (4.7) n (%)
  TEAE Agitation, subjects: 0 n (%)
  TEAE Akathisia, subjects %: (0.9) %
  TEAE Akathisia, subjects n: 1 n
  TEAE Alanine aminotransferase increased, subjects: 0 n (%)
  TEAE Alveolar osteitis, subjects: 0 n (%)
  TEAE Anal fissure, subjects %: (0.9) %
  TEAE Anal fissure, subjects n: 1 n
  TEAE Animal bite, subjects %: (0.9) %
  TEAE Animal bite, subjects n: 1 n
  TEAE Anxiety, subjects %: (9.4) %
  TEAE Anxiety, subjects n: 10 n
  TEAE Aspartate aminotransferase increased, subjects: 0 n (%)
  TEAE Attention deficit hyperactivity disorder, subjects %: (0.9) %
  TEAE Attention deficit hyperactivity disorder, subjects n: 1 n
  TEAE Back pain, subjects %: (0.9) %
  TEAE Back pain, subjects n: 1 n
  TEAE Bronchitis, subjects %: (1.9) %
  TEAE Bronchitis, subjects n: 2 n
  TEAE Chlamydial infection, subjects %: (0.9) %
  TEAE Chlamydial infection, subjects n: 1 n
  TEAE Concussion, subjects: 0 n (%)
  TEAE Constipation, subjects %: (1.9) %
  TEAE Constipation, subjects n: 2 n
  TEAE Decreased appetite, subjects %: (0.9) %
  TEAE Decreased appetite, subjects n: 1 n
  TEAE Depressed mood, subjects: 0 n (%)
  TEAE Depression, subjects: 0 n (%)
  TEAE Dermatitis contact, subjects %: (0.9) %
  TEAE Dermatitis contact, subjects n: 1 n
  TEAE Disturbance in attention, subjects %: (0.9) %
  TEAE Disturbance in attention, subjects n: 1 n
  TEAE Dizziness, subjects %: (2.8) %
  TEAE Dizziness, subjects n: 3 n
  TEAE Dry mouth, subjects %: (1.9) %
  TEAE Dry mouth, subjects n: 2 n
  TEAE Dyspepsia, subjects %: (0.9) %
  TEAE Dyspepsia, subjects n: 1 n
  TEAE Ear infection, subjects: 0 n (%)
  TEAE Eye pruritus, subjects %: (0.9) %
  TEAE Eye pruritus, subjects n: 1 n
  TEAE Fatigue, subjects %: (5.7) %
  TEAE Fatigue, subjects n: 6 n
  TEAE Female sterilisation, subjects %: (0.9) %
  TEAE Female sterilisation, subjects n: 1 n
  TEAE Gastroenteritis norovirus, subjects: 0 n (%)
  TEAE Gastroenteritis viral, subjects: 0 n (%)
  TEAE Gastroenteritis, subjects %: (1.9) %
  TEAE Gastroenteritis, subjects n: 2 n
  TEAE Gout, subjects %: (0.9) %
  TEAE Gout, subjects n: 1 n
  TEAE Headache, subjects %: (6.6) %
  TEAE Headache, subjects n: 7 n
  TEAE Hot flush, subjects %: (0.9) %
  TEAE Hot flush, subjects n: 1 n
  TEAE Hyperhidrosis, subjects: 0 n (%)
  TEAE Increased appetite, subjects %: (0.9) %
  TEAE Increased appetite, subjects n: 1 n
  TEAE Insomnia, subjects %: (10.4) %
  TEAE Insomnia, subjects n: 11 n
  TEAE Irritability, subjects %: (2.8) %
  TEAE Irritability, subjects n: 3 n
  TEAE Leading to Dose Reduction, Dose Interrupted or Study Drug Discontinuation: Abdominal discomfort: 1 (0.9) n (%)
  TEAE Leading to Dose Reduction, Dose Interrupted or Study Drug Discontinuation: Abnormal dreams: 1 (0.9) n (%)
  TEAE Leading to Dose Reduction, Dose Interrupted or Study Drug Discontinuation: Anal fissure: 1 (0.9) n (%)
  TEAE Leading to Dose Reduction, Dose Interrupted or Study Drug Discontinuation: Anxiety: 2 (1.9) n (%)
  TEAE Leading to Dose Reduction, Dose Interrupted or Study Drug Discontinuation: Depression: 0 n (%)
  TEAE Leading to Dose Reduction, Dose Interrupted or Study Drug Discontinuation: Fatigue: 1 (0.9) n (%)
  TEAE Leading to Dose Reduction, Dose Interrupted or Study Drug Discontinuation: Headache: 0 n (%)
  TEAE Leading to Dose Reduction, Dose Interrupted or Study Drug Discontinuation: Insomnia: 2 (1.9) n (%)
  TEAE Leading to Dose Reduction, Dose Interrupted or Study Drug Discontinuation: Irritability: 1 (0.9) n (%)
  TEAE Leading to Dose Reduction, Dose Interrupted or Study Drug Discontinuation: Nausea: 0 n (%)
  TEAE Leading to Dose Reduction, Dose Interrupted or Study Drug Discontinuation: Panic attack: 2 (1.9) n (%)
  TEAE Leading to Dose Reduction, Dose Interrupted or Study Drug Discontinuation: Pregnancy: 0 n (%)
  TEAE Menorrhagia, subjects %: (0.9) %
  TEAE Menorrhagia, subjects n: 1 n
  TEAE Migraine, subjects %: (0.9) %
  TEAE Migraine, subjects n: 1 n
  TEAE Musculoskeletal chest pain, subjects %: (0.9) %
  TEAE Musculoskeletal chest pain, subjects n: 1 n
  TEAE Nasal congestion, subjects: 0 n (%)
  TEAE Nasopharyngitis, subjects: 0 n (%)
  TEAE Nausea, subjects %: (4.7) %
  TEAE Nausea, subjects n: 5 n
  TEAE Neck pain, subjects %: (1.9) %
  TEAE Neck pain, subjects n: 2 n
  TEAE Oropharyngeal pain, subjects %: (1.9) %
  TEAE Oropharyngeal pain, subjects n: 2 n
  TEAE Otitis media, subjects: 0 n (%)
  TEAE Outcome Fatal: 0 n (%)/Events
  TEAE Outcome Not recovered/Not resolved, Events: 23 Events
  TEAE Outcome Not recovered/Not resolved, subjects: 14 (13.2) n (%)
  TEAE Outcome Recovered/Resolved with sequelae: 0 n (%)/Events
  TEAE Outcome Recovered/Resolved, Events: 93 Events
  TEAE Outcome Recovered/Resolved, subjects: 47 (44.3) n (%)
  TEAE Outcome Recovering/Resolving, Events: 3 Events
  TEAE Outcome Recovering/Resolving, subjects: 3 (2.8) n (%)
  TEAE Pain in jaw, subjects: 0 n (%)
  TEAE Panic attack, subjects %: (1.9) %
  TEAE Panic attack, subjects n: 2 n
  TEAE Pelvic pain, subjects %: (0.9) %
  TEAE Pelvic pain, subjects n: 1 n
  TEAE Post viral fatigue syndrome, subjects: 0 n (%)
  TEAE Pregnancy, subjects: 0 n (%)
  TEAE Procedural anxiety, subjects %: (0.9) %
  TEAE Procedural anxiety, subjects n: 1 n
  TEAE Pyrexia, subjects: 0 n (%)
  TEAE Relationship Definite, Events: 3 Events
  TEAE Relationship Definite, subjects: 3 (2.8) n (%)
  TEAE Relationship Not Related (first line, total of Not Related and Unlikely), Events: 65 Events
  TEAE Relationship Not Related (first line, total of Not Related and Unlikely), subjects: 38 (35.8) n (%)
  TEAE Relationship Not Related (second line, sub-category), Events: 55 Events
  TEAE Relationship Not Related (second line, sub-category), subjects: 32 (30.2) n (%)
  TEAE Relationship Possible, Events: 29 Events
  TEAE Relationship Possible, subjects: 17 (16.0) n (%)
  TEAE Relationship Probable, Events: 22 Events
  TEAE Relationship Probable, subjects: 16 (15.1) n (%)
  TEAE Relationship Unlikely, Events: 10 Events
  TEAE Relationship Unlikely, subjects: 9 (8.5) n (%)
  TEAE Restless legs syndrome, subjects %: (0.9) %
  TEAE Restless legs syndrome, subjects n: 1 n
  TEAE Sensitive skin, subjects %: (0.9) %
  TEAE Sensitive skin, subjects n: 1 n
  TEAE Severity Mild, Events: 92 Events
  TEAE Severity Mild, subjects: 50 (47.2) n (%)
  TEAE Severity Moderate, Events: 26 Events
  TEAE Severity Moderate, subjects: 16 (15.1) n (%)
  TEAE Severity Severe, Events: 1 Events
  TEAE Severity Severe, subjects: 1 (0.9) n (%)
  TEAE Sinus congestion, subjects %: (0.9) %
  TEAE Sinus congestion, subjects n: 1 n
  TEAE Sinusitis, subjects: 0 n (%)
  TEAE Stress, subjects %: (0.9) %
  TEAE Stress, subjects n: 1 n
  TEAE Thirst, subjects %: (0.9) %
  TEAE Thirst, subjects n: 1 n
  TEAE Tooth extraction, subjects: 0 n (%)
  TEAE Trismus, subjects: 0 n (%)
  TEAE Upper respiratory tract infection, subjects %: (5.7) %
  TEAE Upper respiratory tract infection, subjects n: 6 n
  TEAE Urinary tract infection, subjects %: (0.9) %
  TEAE Urinary tract infection, subjects n: 1 n
  TEAE Vasectomy, subjects %: (0.9) %
  TEAE Vasectomy, subjects n: 1 n
  TEAE Vomiting, subjects %: (0.9) %
  TEAE Vomiting, subjects n: 1 n
  TEAE Wisdom teeth removal, subjects %: (0.9) %
  TEAE Wisdom teeth removal, subjects n: 1 n
Cytisinicline 12 wks (N = 106)
  Adverse event Abnormal dreams, %: 12.3%
  Adverse event Anxiety, %: 9.4%
  Adverse event Fatigue, %: 5.7%
  Adverse event Headache, %: 6.6%
  Adverse event Insomnia, %: 10.4%
  Adverse event Nausea, %: 4.7%
  Adverse event Upper respiratory tract infection, %: 5.7%
  At Least One TEAE: 54 (50.9) n (%)
  Subjects with At Least One TEAE, %: 50.9%
  TEAE relationship: Not Related: 39 (35.8) n (%)
  TEAE relationship: Related: 30 (28.3) n (%)
  Treatment-emergent adverse events: Mild: 50 (47.2) n (%)
  Treatment-emergent adverse events: Moderate: 16 (15.1) n (%)
Cytisinicline 12 wks (N = 106), abnormal dreams
  Treatment-emergent adverse events: Severe: 1 (0.9)* n (%)
[1]
  At Least One TEAE, subjects %: (50.9) %
  At Least One TEAE, subjects n: 54 n
Cytisinicline arm, 12 weeks
  Rate of adverse events: 50.9%
human, in vivo
  Adverse event COVID-19, %: 3 (2.8) %
  TEAE COVID-19, subjects %: (2.8) %
  TEAE COVID-19, subjects n: 3 n
  TEAE Influenza, subjects %: (1.9) %
  TEAE Influenza, subjects n: 2 n
[2]
  At Least One TEAE, Events: 119 Events
  At Least One TEAE, subjects: 54 (50.9) n (%)
[3]
  TEAE Relationship Related, Events: 54 Events
  TEAE Relationship Related, subjects: 30 (28.3) n (%)
